In the assay the target is T1, C3aR (Rattus norvegicus, UniProt O55197).
T1 construct: characterize for the first time a C3aR-induced innate immune response in vivo in rats; from tissue; host or cells: live male Wistar rats, hind paw
T1 sequence (O55197 1-473): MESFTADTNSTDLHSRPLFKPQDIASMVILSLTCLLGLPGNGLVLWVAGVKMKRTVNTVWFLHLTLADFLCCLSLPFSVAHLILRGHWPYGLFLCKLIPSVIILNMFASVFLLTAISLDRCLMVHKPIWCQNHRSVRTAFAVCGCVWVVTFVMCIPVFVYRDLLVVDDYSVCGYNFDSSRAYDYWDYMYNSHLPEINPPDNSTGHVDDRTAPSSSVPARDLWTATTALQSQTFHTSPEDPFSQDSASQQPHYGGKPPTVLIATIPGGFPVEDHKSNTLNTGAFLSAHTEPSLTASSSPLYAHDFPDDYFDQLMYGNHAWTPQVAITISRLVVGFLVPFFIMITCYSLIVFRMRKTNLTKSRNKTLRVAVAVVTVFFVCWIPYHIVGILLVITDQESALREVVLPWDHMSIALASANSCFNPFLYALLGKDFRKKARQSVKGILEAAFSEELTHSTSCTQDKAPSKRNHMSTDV
Kind of assay: Agonist-induced acute rat paw edema and immune responses. It counts as in vivo. As to the method: Male Wistar rats (8–9 weeks) were injected with BR103 (3, 350 μg in 100 μL isotonic saline) into the plantar surface of both hind paw pads using a 30G needle. The inhibitor cromolyn (20 mg/kg in 5% DMSO) was injected subcutaneously 30 min before the agonist. The antagonist BR111 (6, 5–20 mg/kg in olive oil) was administered orally as a single dose 2 h before the agonist. Paw thickness and width were measured using digital calipers (WPI) at 0, 0.5, 2, 6 and 24 h after agonist BR103 administration. Hind paw size is expressed as % change in area from baseline after 0.5 h and then normalized against maximum swelling induced by agonist alone. Researchers were not blinded to treatments given.
Rat paw tissue was collected and fixed in 4% paraformaldehyde (pH 7.4) for 2 h in the cold room (4 °C). The rat paw tissue was then transferred into falcon tubes containing 30% sucrose solution in PBS and left overnight in the cold room. The next day, rat paw tissue was embedded with the Optimal Cutting Temperature compound (OCT, Sakura Finetek, USA) and stored in the −80 °C freezer before being used for making cryo-sections for histological analysis. Frozen sections of 5 microns were prepared using a cryostat-microtome (Leica Biosystems, Germany) and stained using standard protocols on the same day. In normal histological staining, such as with alcian blue and safranin O and hematoxylin and eosin (H&E), samples were briefly washed with distilled water before staining. In alcian blue and safranin O, samples were stained with 0.1% alcian blue (Sigma-Aldrich, USA) and 0.5% safranin O (Sigma-Aldrich, USA) before being mounted in mounting medium. In H&E, samples were stained with hematoxylin (Sigma-Aldrich, USA) and 0.1% eosin (Sigma-Aldrich, USA) before being mounted in mounting medium. In immunohistochemistry, samples were briefly rinsed with PBS to remove OCT and incubated with blocking medium (PBS, 0.1% triton X-100, 10% horse serum) for 1 h at room temperature. Samples were incubated with primary antibody medium (PBS, 4% horse serum, 1:200 histamine or 1:200 of tryptase or 1:150 ED1 or 1:200 ED2 antibodies) overnight at 4 °C. The next day, samples were washed with PBS and were incubated with the secondary antibody medium (PBS, 4% horse serum, detection antibody 1:1000) for 1 h at room temperature. The samples were briefly rinsed, dried and counterstained with DAPI (Invitrogen, Australia). Primary antibodies for histamine (Sigma-Aldrich, USA, H2403, monoclonal rabbit anti-rat IgG, 1: 200), tryptase (Abcam, Australia, ab2378, monoclonal mouse anti-rat IgG, 1:200), ED1 (Serotec, UK, MCA341R, monoclonal mouse anti-rat, 1:150), ED2 (Serotec, UK, MCA3424R, monoclonal mouse anti-rat, 1:200) were purchased from commercial sources. Secondary detection antibody was purchased from (Invitrogen, Australia). ED1 & ED2 positive cells were quantified using FIJI/ImageJ 1.42q software, U.S. National Institutes of Health, Bethesda, MD, USA[44]. All microscope images were obtained using an Olympus BX-51 upright microscope with Olympus DP-71 12Mp colour camera, utilizing DP Capture and DP Manager software packages (Olympus, Tokyo, Japan). Researchers who performed histological analysis and scoring were blinded to the sample identity.
Rat paw tissues were collected and immediately frozen with liquid nitrogen. The frozen rat paw tissue samples were weighed and crushed into smaller pieces with a mortar and pestle in liquid nitrogen. The crushed tissues were added to MPO buffer (50 mM potassium phosphate buffer, pH 6.0) to make up a concentration of 200 mg/mL and homogenized using Zirconium oxide beads (Next Advance, USA) and the Bullet Blender® homogeniser (Next Advance, USA). The homogenized tissues were then diluted to 100 mg/mL with the MPO buffer containing 1% hexadecyl trimethylamonium bromide (Sigma-Aldrich, USA) and underwent three cycles of freeze, thaw, and sonication. […]

The mark [1] stands for this setting: 350 µg per paw i.pl., 0.5 h, vs vehicle.
[2] abbreviates: male Wistar rats, 350 µg per paw, i.pl.

From publication PMC5570900, “Exploiting a novel conformational switch to control innate immunity mediated by complement protein C3a” (Nature Communications, 2017) come the findings set out here.

As to `Cc1[nH]c(C(c2ccccc2)c2ccccc2)nc1C(=O)N[C@@H](CCCNC(=N)N)C(=O)O` [Compound 3], under setting [1], the “Activated mast cells in paw tissue” value is “increased number of activated mast cells”, the “Histamine secretion in paw tissue” value is given as “increased histamine secretion”, the “Infiltration of ED1+ macrophages” value was “temporal increase in infiltration of inflammatory ED1^+ macrophages” and the “Tryptase-positive cells in paw tissue” value was “decreased tryptase-positive cells”. Besides, where the note is “350 µg per paw i.pl., vs vehicle”, the “Resident ED2+ macrophage cell numbers” value is listed as “without significantly affecting resident ED2^+ macrophage cell numbers”. Further, the “Proinflammatory gene expression (Il1β, Il6, Tnf, Ccl3, Mcp1) in paw” value (350 µg/paw i.pl., 0.5, 6, 24 h, vs vehicle) is on record as “induced the upregulation of many proinflammatory genes”. The “Myeloperoxidase (MPO) activity in paw” value (350 µg/paw i.pl., 30 min, 6 h, 24 h, vs sham) was “increased myeloperoxidase (MPO) activity at 6 h, but not at 30 min or 24 h”. Also, under setting [2], the Paw edema induction entry is “induced an acute inflammatory edema” and the “Time of peak paw swelling” value is given as 0.5 h.
